Among the test systems are K562; 786-0; HT-29; SF-295; UO-31; M19-MEL; OVCAR-3; COLO 205; RPMI-8226; UACC-257; M14; SNB-19; HL-60; OVCAR-5; HCC 2998; A498; BT-549; PC-3; MDA-MB-435; DU-145.
Common to all, as to assay: growth of human tumour cells (NCI), 48 h

The results in this text go back to ChEMBL document CHEMBL1201862, “PubChem BioAssay data set” (2004).

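In this assay, cells in 96-well plates receive the compound at five concentrations for 48 hours. Endpoints are linearly interpolated between the surrounding concentrations. GI50 marks 50% less growth.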 The source made the active and inactive calls. Cut-off read from the data, not from the text of the source: active = GI50 up to about 1.1 µM and inactive = higher. Square brackets hold non-standard residues; d marks the D form. Peptide text beside a SMILES is read from it. * marks the point of attachment. Bn2Val = CC(C)[C@@H](C(=O)*)N(Cc1ccccc1)Cc1ccccc1; NH(3,4-diMeO-benzyl) = COc1ccc(CN*)cc1OC; NMeV = CN[C@H](C(=O)O)C(C)C; dNMeA = CN[C@H](C)C(=O)O

Consider `Cc1ccccc1NC(=O)c1cc2cc(/N=N/c3ccccc3C(=O)O)ccc2oc1=O`, for which the GI50 is 23.6 µM (inactive) with K562; 27.1 µM (inactive) in the assay with 786-0; 15.2 µM (inactive) in the assay with HT-29; 18.5 µM (inactive) in the assay with SF-295; 20.6 µM (inactive) with UO-31; 9.38 µM (inactive) with M19-MEL. Moreover, the GI50 with OVCAR-3 was 34.8 µM (inactive); in the assay on COLO 205 it was 12.9 µM (inactive); in the assay with RPMI-8226, 15.9 µM (inactive); with UACC-257, 10.3 µM (inactive); in the assay on M14 it was 16.7 µM (inactive); in the assay on SNB-19 it was > 10 µM (inactive). Moreover, the GI50 with HL-60 was 19.5 µM (inactive).
For the molecule `N/N=c1\c2ccccc2c2cc3c(cc12)/c(=N/N)c1ccccc13`, the GI50 in the assay with OVCAR-5, in the assay with K562, with 786-0, with HT-29, in the assay with SF-295 and in the assay on UO-31 was > 100 µM (inactive) in each case. For the same molecule, the GI50 with M19-MEL, in the assay with COLO 205, in the assay with RPMI-8226, in the assay on UACC-257, in the assay on M14 and with SNB-19 was > 100 µM (inactive) throughout. Moreover, the GI50 in the assay on HL-60 and in the assay with HCC 2998 was > 100 µM (inactive) each time.
As for `CC(=O)NC1C(OCc2ccccc2)OC(COC(=O)CCCCCCCCCCNC(=O)c2cccc3c(=O)c4ccccc4[nH]c23)C(O)C1OC(C)C(=O)NC(C)C(=O)NC(CCC(N)=O)C(N)=O` (stereo unspecified), the GI50 in the assay with OVCAR-5 was > 100 µM (inactive); in the assay on K562 it was 35.6 µM (inactive); with 786-0, > 100 µM (inactive); in the assay with HT-29 it was 75.9 µM (inactive); in the assay with SF-295 it was 71.1 µM (inactive); with UO-31 it was > 100 µM (inactive). Also, the GI50 with M19-MEL is 75.5 µM (inactive); in the assay with OVCAR-3, 43.8 µM (inactive); in the assay on COLO 205, 85.3 µM (inactive); in the assay with RPMI-8226, 32.1 µM (inactive); with UACC-257, > 100 µM (inactive); in the assay with A498, 98.6 µM (inactive). The GI50 was > 100 µM (inactive) in the assay on M14, 47.3 µM (inactive) in the assay on SNB-19 and > 100 µM (inactive) with HL-60.
For `Cc1nc2c(n1Cc1ccc(Cl)cc1)C(=O)c1ccccc1C2=O`, the GI50 is 2.06 µM (inactive) with K562; 5.68 µM (inactive) with 786-0; 4.08 µM (inactive) with HT-29; 11 µM (inactive) with SF-295; > 75 µM (inactive) in the assay on UO-31; 11.7 µM (inactive) in the assay with M19-MEL. The GI50 with OVCAR-3 was 67.3 µM (inactive); in the assay with COLO 205, > 75 µM (inactive); in the assay on UACC-257 it was > 75 µM (inactive); with M14, > 75 µM (inactive); in the assay with SNB-19, > 75 µM (inactive); in the assay with HL-60 it was 4.36 µM (inactive). For the same molecule, the GI50 in the assay on HCC 2998 is > 75 µM (inactive).
Consider `Cc1noc2cccc(OCc3ccccc3)c12`, for which the GI50 with OVCAR-5 is 25.6 µM (inactive); in the assay with K562 it was 43 µM (inactive); with 786-0, 99.3 µM (inactive); in the assay with HT-29, 37.2 µM (inactive); in the assay on SF-295, 72.4 µM (inactive); in the assay on UO-31, 15 µM (inactive). Also, the GI50 in the assay on M19-MEL was 60.1 µM (inactive); in the assay on OVCAR-3, 94.8 µM (inactive); in the assay with COLO 205, 52.1 µM (inactive); in the assay on RPMI-8226 it was 30.7 µM (inactive); in the assay with UACC-257 it was 53.8 µM (inactive); in the assay with M14, 92.5 µM (inactive). Further, the GI50 with SNB-19 is 91 µM (inactive); in the assay with HL-60, 17.3 µM (inactive).
As to `CC1(C)COC2=C(C1)C(=O)c1ccccc1C2=O`, the GI50 in the assay with BT-549 was 1.85 µM (inactive); with OVCAR-5, 1.69 µM (inactive); with K562 it was 0.102 µM (active); in the assay with 786-0, 1.84 µM (inactive); with HT-29 it was 2.53 µM (inactive); in the assay with SF-295 it was 1.63 µM (inactive). Also, the GI50 in the assay with UO-31 was 1.04 µM (active); with OVCAR-3, 0.75 µM (active); in the assay with COLO 205, 2.2 µM (inactive); in the assay on PC-3, 1.55 µM (inactive); with RPMI-8226 it was 1.32 µM (inactive); in the assay with UACC-257 it was 0.828 µM (active). The GI50 was 2.1 µM (inactive) with A498; 0.195 µM (active) with MDA-MB-435; 1.61 µM (inactive) in the assay on M14; 1.64 µM (inactive) in the assay with DU-145; 1.97 µM (inactive) in the assay with SNB-19; 0.583 µM (active) in the assay on HL-60. Besides, in the assay on HCC 2998, the GI50 is 1.7 µM (inactive).
For the molecule `COc1ccc(CNC(=O)[C@@H](C)N(C)C(=O)[C@@H]2CCCN2C(=O)[C@H](C(C)C)N(C)C(=O)[C@@H](NC(=O)[C@H](C(C)C)N(Cc2ccccc2)Cc2ccccc2)C(C)C)cc1OC` (Bn2Val-V[NMeV]P[dNMeA]-{NH(3,4-diMeO-benzyl)}), the GI50 is 7.69 µM (inactive) with BT-549; 8.2 µM (inactive) in the assay with OVCAR-5; 10.8 µM (inactive) with K562; 8.97 µM (inactive) in the assay on 786-0; 5.4 µM (inactive) in the assay on HT-29; 6.28 µM (inactive) with SF-295. The GI50 in the assay on UO-31 was > 100 µM (inactive); in the assay on OVCAR-3, 5.9 µM (inactive); in the assay on COLO 205 it was 6.55 µM (inactive); in the assay with PC-3, 3.61 µM (inactive); with RPMI-8226 it was 2.66 µM (inactive); in the assay with UACC-257, 7.43 µM (inactive). The GI50 in the assay with A498 was 11.5 µM (inactive); in the assay on MDA-MB-435, 8.63 µM (inactive); in the assay with M14, 6.92 µM (inactive); with DU-145, 14 µM (inactive); with SNB-19, 7.48 µM (inactive); in the assay on HL-60, 1.8 µM (inactive). Moreover, the GI50 in the assay with HCC 2998 is 7.1 µM (inactive).
Regarding `C[C@@H]1CC[C@@]2(C)[C@H](C)/C(=C\COC(=O)/C=C/c3ccc(O)c(O)c3)CC[C@@]12C` [NAVICULYL CAFFEATE], the GI50 was 14.6 µM (inactive) with BT-549; 18 µM (inactive) in the assay with OVCAR-5; 4.99 µM (inactive) in the assay with K562; 4.37 µM (inactive) with 786-0; 3.94 µM (inactive) in the assay on HT-29; 8.87 µM (inactive) in the assay on SF-295. Also, the GI50 with UO-31 was 8.73 µM (inactive); with OVCAR-3 it was 8.63 µM (inactive); in the assay on COLO 205, 3.61 µM (inactive); with PC-3, 4.71 µM (inactive); in the assay on RPMI-8226, 2.21 µM (inactive); with UACC-257, 11.8 µM (inactive). Moreover, the GI50 with A498 is 12.9 µM (inactive); in the assay with MDA-MB-435, 3.33 µM (inactive); with M14 it was 8.18 µM (inactive); in the assay with DU-145 it was 8.02 µM (inactive); with SNB-19, 11.5 µM (inactive); in the assay with HL-60, 5.26 µM (inactive). Also, in the assay with HCC 2998, the GI50 was 7.67 µM (inactive).
As for `COC(=O)[C@H]1[C@H]2C[C@@H]3c4[nH]c5cc(OC)ccc5c4CCN3C[C@H]2C[C@@H](OC(=O)c2cc(OC)c(OC)c(OC)c2)[C@@H]1OC` [RESERPINE], the GI50 in the assay on OVCAR-5 was 38 µM (inactive); with K562, 7.11 µM (inactive); in the assay with 786-0, 14.2 µM (inactive); in the assay with HT-29, 12 µM (inactive); in the assay with SF-295, 17.7 µM (inactive); with UO-31, 15.1 µM (inactive). For the same molecule, the GI50 is 20.9 µM (inactive) with M19-MEL; 18.3 µM (inactive) with OVCAR-3; 15.7 µM (inactive) in the assay on COLO 205; 6.9 µM (inactive) in the assay with RPMI-8226; 15.6 µM (inactive) in the assay on UACC-257; 15.4 µM (inactive) with M14. Further, the results for the GI50 with SNB-19, in the assay on HL-60 and in the assay on HCC 2998 were 16.2 µM (inactive), 14.2 µM (inactive) and 27.8 µM (inactive), respectively.
